From patent publication US20120010241A1, “HSP90 INHIBITING INDAZOLE DERIVATIVES, COMPOSITIONS CONTAINING SAME AND USE THEREOF” (SANOFI, priority 2009, published 2012) come the findings set out here.

The test system of assay [1] is Her2 expression in SKBr3 cells. The assay is described as follows: phenotypic SKBr3/HER2 cell test (Her2 expression at the cell surface, flow cytometry). The format is cell-based. The note with it: Homo sapiens, SK-BR-3, incubation for 24 h, anti-Her2 antibody coupled to PE, FACS. The method, then:
The cellular activity of the compounds can in particular be evaluated by means of the phenotypic “SKBr3/HER2” cell test described below:
The SKBr3 […] adenocarcinoma cells, overexpressing the Her2 tyrosine kinase receptor, originate from the ATCC (HTB-30) and are cultured in McCoy's 5A medium supplemented with 10% FBS and 1% L-glutamine.
The cells are seeded in 12-well plates at a proportion of 125 000 cells per well in 1 ml of complete medium. The following day, the products are added at varying concentrations. After incubation for 24 h, the cells are trypsinized, washed with PBS and incubated with 100 ng of anti-Her2 antibody coupled to PE (phycoerythrin) (BD 340552) for 30 minutes at 4° C. in the dark. The fluorescence due to the expression of the Her2 receptor at the surface of the cells is then read using a FACS Calibur flow cytometer (Becton-Dickinson). The percentage inhibition of Her2 expression as a function of the concentrations of product tested is fitted by the nonlinear regression technique (XLfit, equation 205) in order to measure the IC50 for each product.

In a further assay the target is Hsp82 (Saccharomyces cerevisiae, UniProt P02829). As to the kind of experiment: Hsp82/ATPase test (PK/LDH coupled spectrophotometric method; malachite green method also described). The note with it: 1 μM Hsp82, 250 μM ATP, 37° C., absorbance at 340 nm. The format is biochemical. The method, then: The biochemical activity of the compounds can in particular be evaluated by means of the “Hsp82/ATPase” test described below:
The inorganic phosphate released during the hydrolysis of ATP by the ATPase activity of Hsp82 is quantified by the malachite green method. In the presence of this reagent, formation of the inorganic phosphate-molybdate-malachite green complex, which absorbs at a wavelength of 620 nm, occurs.
The products to be evaluated are incubated in a reaction volume of 30 μl, in the presence of 1 μM Hsp82 and of 250 μM of substrate (ATP) in a buffer composed of 50 mM Hepes-NaOH (pH 7.5), 1 mM DTT, 5 mM MgCl2 and 50 mM KCl at 37° C. for 60 min. In parallel, an inorganic phosphate range of between 1 and 40 μM is made up in the same buffer. […] The inorganic phosphate concentration of each sample is then calculated from the standard curve. The ATPase activity of Hsp82 is expressed as concentration of inorganic phosphate produced in 60 minutes. The effect of the various products tested is expressed as percentage inhibition of the ATPase activity.
The formation of ADP due to the ATPase activity of Hsp82 was used to develop another method for evaluating the enzyme activity of this enzyme by application of an enzymatic coupling system involving pyruvate kinase (PK) and lactate dehydrogenase (LDH). In this kinetic-type spectrophotometric method, PK catalyses the formation of ATP and of pyruvate from phosphoenol pyruvate (PEP) and the ADP produced by Hsp82. The pyruvate formed, which is a substrate for LDH, is subsequently converted to lactate in the presence of NADH. In this case, the decrease in the NADH concentration, measured through the decrease in absorbance at the wavelength of 340 nm, is proportional to the concentration of ADP produced by Hsp82.
The products tested are incubated in a reaction volume of 100 μl of buffer composed of 100 mM Hepes-NaOH (pH 7.5), 5 mM MgCl2, 1 mM DTT, 150 mM KCl, 0.3 mM NADH, 2.5 mM PEP and 250 μM ATP. This mixture is preincubated at 37° C. for 30 minutes before the addition of 3.77 units of LDH and 3.77 units of PK. The reaction is initiated by addition of the product to be evaluated, in varying concentrations, and of Hsp82, at the concentration of 1 μM. The enzymatic activity of Hsp82 is then measured continuously, in a microplate reader, at 37° C., at the wavelength of 340 nm. The initial rate of the reaction is obtained by measuring the slope of the tangent to the origin of the curve recorded. The enzymatic activity is expressed in μM of ADP formed per minute. The effect of the various products tested is expressed as 50% inhibitory concentration (1050) with respect to the ATPase activity, according to the codification below: […]

A value given as a limit tells only on which side of the number the result lay.

Chain of Hsp82 (P02829 whole entry): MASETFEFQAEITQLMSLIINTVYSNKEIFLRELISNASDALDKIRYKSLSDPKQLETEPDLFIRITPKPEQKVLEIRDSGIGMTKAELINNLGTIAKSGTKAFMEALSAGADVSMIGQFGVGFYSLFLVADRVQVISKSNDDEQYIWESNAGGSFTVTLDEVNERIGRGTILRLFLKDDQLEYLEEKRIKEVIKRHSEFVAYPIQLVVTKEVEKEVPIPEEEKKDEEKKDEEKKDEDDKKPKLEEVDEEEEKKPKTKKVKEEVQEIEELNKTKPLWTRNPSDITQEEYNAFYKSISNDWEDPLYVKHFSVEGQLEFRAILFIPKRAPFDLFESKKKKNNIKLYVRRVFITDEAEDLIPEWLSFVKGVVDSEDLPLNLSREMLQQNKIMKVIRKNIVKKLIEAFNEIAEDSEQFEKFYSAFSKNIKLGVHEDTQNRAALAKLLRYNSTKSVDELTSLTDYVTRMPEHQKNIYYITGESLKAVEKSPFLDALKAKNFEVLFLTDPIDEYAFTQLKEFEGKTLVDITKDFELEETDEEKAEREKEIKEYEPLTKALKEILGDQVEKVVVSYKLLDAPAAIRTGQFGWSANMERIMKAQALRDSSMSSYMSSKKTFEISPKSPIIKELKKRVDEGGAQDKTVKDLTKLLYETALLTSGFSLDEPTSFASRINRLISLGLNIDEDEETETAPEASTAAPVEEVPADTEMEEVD

Take `Cc1nn(-c2ccc(C(N)=O)c(NC[C@H]3C[C@@H]4CC[C@H]3O4)c2)c2cccc(-c3cnc4ccccc4c3)c12` (single isomer, unassigned) [Example 19, 4-(3-methyl-4-quinolin-3-ylindazol-1-yl)-2-{[exo-1-(7-oxabicyclo[2.2.1]hept-2-yl)methyl]amino}benzamide]: the IC50 in assay [1] was under 1000 nM.

On to `Cc1nn(-c2ccc(C(N)=O)c(NC[C@@H]3C[C@@H]4CC[C@H]3O4)c2)c2cccc(-c3cnc4ccccc4c3)c12` (single isomer, unassigned) [Example 20, 4-(3-methyl-4-quinolin-3-ylindazol-1-yl)-2-{[endo-1-(7-oxabicyclo[2.2.1]hept-2-yl)methyl]amino}benzamide], for which the IC50 in assay [1] is under 1000 nM.

Take `Cc1nn(-c2ccc(C(N)=O)c(N[C@H]3CC[C@H](O)CC3)c2)c2cccc(-c3cnc4ccccc4c3)c12` [Example 1, 2-(trans-4-hydroxycyclohexylamino)-4-(3-methyl-4-quinolin-3-ylindazol-1-yl)benzamide]: the IC50 (in assay [1]; on Hsp82) was under 1000 nM each time. For the compound `Cc1nn(-c2ccc(C(N)=O)cc2)c2cccc(-c3cnc4ccccc4c3)c12` [Example 2, 4-(3-methyl-4-quinolin-3-ylindazol-1-yl)benzamide], the IC50 in assay [1] lay in the range of 10000 to 100000 nM; on Hsp82, 1000 to 10000 nM. `Cc1nn(-c2ccc(C(N)=O)c(NCCCO)c2)c2cccc(-c3cnc4ccccc4c3)c12` [Example 3, 2-(3-hydroxypropylamino)-4-(3-methyl-4-quinolin-3-ylindazol-1-yl)benzamide]: the IC50 (in assay [1]; at Hsp82) was under 1000 nM each time. For the compound `Cc1nn(-c2ccc(C(N)=O)c(NCCC3(O)CCN(C)CC3)c2)c2cccc(-c3cnc4ccccc4c3)c12` [Example 4, 2-[2-(4-hydroxy-1-methylpiperidin-4-yl)ethylamino]-4-(3-methyl-4-quinolin-3-ylindazol-1-yl)benzamide], the IC50 in assay [1] is under 1000 nM. For `Cc1nn(-c2ccc(C(N)=O)c(NCC(C)(C)O)c2)c2cccc(-c3cnc4ccccc4c3)c12` [Example 5, 2-(2-hydroxy-2-methylpropylamino)-4-(3-methyl-4-quinolin-3-ylindazol-1-yl)benzamide], the IC50 (in assay [1]; against Hsp82) was under 1000 nM in each case. With `Cc1nn(-c2ccc(C(N)=O)c(NC3CC(C)(C)NC(C)(C)C3)c2)c2cccc(-c3cnc4ccccc4c3)c12` [Example 6, 4-(3-methyl-4-quinolin-3-ylindazol-1-yl)-2-(2,2,6,6-tetramethylpiperidin-4-ylamino)benzamide], the IC50 (in assay [1]; on Hsp82) was under 1000 nM in each case. Take `Cc1nn(-c2ccc(C(N)=O)c(NC3CCOCC3)c2)c2cccc(-c3cnc4ccccc4c3)c12` [Example 7, 4-(3-methyl-4-quinolin-3-ylindazol-1-yl)-2-(tetrahydropyran-4-ylamino)benzamide]: the IC50 (in assay [1]; on Hsp82) was under 1000 nM in each case. In turn, `Cc1nn(-c2ccc(C(N)=O)c(NCCF)c2)c2cccc(-c3cnc4ccccc4c3)c12` [Example 8, 2-(2-fluoroethylamino)-4-(3-methyl-4-quinolin-3-ylindazol-1-yl)benzamide] gave an IC50 in assay [1] of under 1000 nM. In the case of `Cc1nn(-c2cnc(C(N)=O)c(NCC(C)(C)O)c2)c2cccc(-c3cnc4ccccc4c3)c12` [Example 9, 3-(2-hydroxy-2-methylpropylamino)-5-(3-methyl-4-quinolin-3-ylindazol-1-yl)pyridine-2-carboxamide], in assay [1], the IC50 was under 1000 nM. `Cc1nn(-c2cnc(C(N)=O)c(NC3CCOCC3)c2)c2cccc(-c3cnc4ccccc4c3)c12` [Example 10, 5-(3-methyl-4-quinolin-3-ylindazol-1-yl)-3-(tetrahydro-pyran-4-ylamino)pyridine-2-carboxamide]: the IC50 (in assay [1]; against Hsp82) was under 1000 nM throughout. For the compound `Cc1nn(-c2ccc(C(N)=O)c(N[C@H]3CC[C@H](OC(=O)CN)CC3)c2)c2cccc(-c3cnc4ccccc4c3)c12` [Example 11, aminoacetic acid trans-4-[2-carbamoyl-5-(3-methyl-4-quinolin-3-ylindazol-1-yl)phenylamino]cyclohexyl ester], the IC50 (in assay [1]; against Hsp82) was under 1000 nM throughout. `Cc1nn(-c2ccc(C(N)=O)c(N[C@H]3CC[C@H](O)CC3)c2)c2cccc(-c3nc4ccc(F)cc4[nH]3)c12` [Example 12, 4-[4-(6-fluoro-1H-benzimidazol-2-yl)-3-methylindazol-1-yl]-2-(trans-4-hydroxycyclohexylamino)benzamide]: the IC50 (in assay [1]; against Hsp82) was under 1000 nM each time. Regarding `Cc1nn(-c2ccc(C(N)=O)c(NCC(C)(C)O)c2)c2cccc(-c3nc4ccc(F)cc4[nH]3)c12` [Example 13, 4-[4-(6-fluoro-1H-benzimidazol-2-yl)-3-methylindazol-1-yl]-2-(2-hydroxy-2-methylpropylamino)benzamide], the IC50 in assay [1] is under 1000 nM. `Cc1nn(-c2cnc(C(N)=O)c(N[C@H]3CC[C@H](O)CC3)c2)c2cccc(-c3cnc4ccccc4c3)c12` [Example 16, 3-(trans-4-hydroxycyclohexylamino)-5-(3-methyl-4-quinolin-3-ylindazol-1-yl)pyridine-2-carboxamide] gave an IC50 in assay [1] of under 1000 nM. On the same count and under the same terms, the result for `Cc1nn(-c2cnc(C(N)=O)c(NC3CC(C)(C)N(C)C(C)(C)C3)c2)c2cccc(-c3cnc4ccccc4c3)c12` [Example 17] reads under 1000 nM; that for `NC(=O)c1ccc(-n2nc(C(F)(F)F)c3c(-c4cnc5ccccc5c4)cccc32)cc1N[C@H]1CC[C@H](O)CC1` [Example 21, 2-(trans-4-hydroxycyclohexylamino)-4-(4-quinolin-3-trifluoromethylindazol-1-yl)benzamide], under 1000 nM; that for `NC(=O)c1ccc(-n2nc(C(F)(F)F)c3c(-c4nc5ccc(F)cc5[nH]4)cccc32)cc1N[C@H]1CC[C@H](O)CC1` [Example 22, 4-[4-(6-fluoro-1H-benzimidazol-2-yl)-3-trifluoromethylindazol-1-yl]-2-(trans-4-hydroxycyclohexylamino)benzamide], 1000 to 10000 nM.

With `NC(=O)c1ncc(-n2nc(C(F)(F)F)c3c(-c4cnc5ccccc5c4)cccc32)cc1N[C@H]1CC[C@H](O)CC1` [Example 23, 3-(trans-4-hydroxycyclohexylamino)-5-(4-quinolin-3-yl-3-trifluoromethylindazol-1-yl)pyridine-2-carboxamide], in assay [1], the IC50 was under 1000 nM.

On to `NC(=O)c1ccc(-n2ncc3c(-c4cnc5ccccc5c4)cccc32)cc1N[C@H]1CC[C@H](O)CC1` [Example 24, 2-(trans-4-hydroxycyclohexylamino)-4-(4-quinolin-3-ylindazol-1-yl)benzamide], for which the IC50 in assay [1] was under 1000 nM. Same read-out and setting: then `NC(=O)c1ccc(-n2ncc3c(-c4cnc5ccccc5c4)cccc32)cc1` [Example 25, 4-(4-quinolin-3-ylindazol-1-yl)benzamide], with 10000 to 100000 nM; and `NC(=O)c1ncc(-n2nc(Cl)c3c(-c4cnc5ccccc5c4)cccc32)cc1N[C@H]1CC[C@H](O)CC1` [Example 26, 5-(3-chloro-4-quinolin-3-ylindazol-1-yl)-3-(trans-4-hydroxycyclohexylamino)pyridine-2-carboxamide], with under 1000 nM; and `CC(C)(O)CNc1cc(-n2nc(Br)c3c(-c4cnc5ccccc5c4)cccc32)cnc1C(N)=O` [Example 27, 5-(3-bromo-4-quinolin-3-ylindazol-1-yl)-3-(2-hydroxy-2-methylpropylamino)pyridine-2-carboxamide], with under 1000 nM.

Broadly, the IC50 is the concentration that inhibits the measured activity by half. Read a high IC50 as a need for much substance.
